Measurements as given in US20250154220A1, “INSULIN ANALOGS FOR THE TREATMENT OF HUMAN METABOLIC DISORDER AND DISEASE” (Ambio, Inc., priority 2023, published 2025).
Entries after “also recorded” stand apart in the source; their conditions may differ.

Tests used:
[1] = Body weight of non-fasted Sprague-Dawley rats after subcutaneous injection; assay type: in vivo; details: SD rats, over 120 hours, FIG. 13 and FIG. 16
Method: (§1) Male Sprague-Dawley (SD) rats at the age of 8-10 weeks old were administered a dose of 175 nmol-200 nmol insulin analogs 1, 2, 3, 4, APi3545, APi3546, APi3547, and APi3549 through subcutaneous injection. Insulin Degludec was used as a positive control. A vehicle control consisted of glycerol (19.6 mg), metacresol (1.72 mg), phenol (1.50 mg), zinc acetate ([…]), and WFI to 1 mL.

[2] = tested on: Sprague-Dawley (SD) rats; assay: c-peptide levels in non-fasted Sprague-Dawley rats after subcutaneous injection; assay type: in vivo; details: 175 nmol-200 nmol s.c.; for duration of c-peptide level compared to rats injected with Degludec: over 120 hours
Method: as §1

[3] = tested on: Sprague-Dawley (SD) rats; assay: Glucose levels in non-fasted Sprague-Dawley rats after subcutaneous injection; assay type: in vivo; details: for duration of decrease in glucose levels compared to rats injected with Degludec: over 120 hours; for glucose area under the curve (AUC) values: FIG. 9 (0-96 hour) and FIG. 15 (0-72 hour)
Method: as §1

[4] = biological target: T1, IGF-1R (Homo sapiens, UniProt P08069); assay: IGF-1R activation in IGF-1R (Luc) HEK293 reporter cells; assay type: cell-based; details: up to 4 μg/mL (1.6 μM) concentration
T1 construct: expressed in transfected cells; host or cells: IGF-1R (Luc) HEK293 reporter cells
From the text: Insulin-like growth factor (IGF-1R) is a tyrosine kinase type receptor that regulates cell growth and proliferation and can be activated by IGF-1, IGF-2, and insulin. […]

[5] = Body weight of db/db mice measured daily for 3 days after single subcutaneous dose; assay type: in vivo; details: Day 1-3, 1.5 IU/mg Degludec, all dose levels of Analog #1, FIGS. 3A-3B
Method: (§2) Accordingly, the ability of insulin analog 1 (FIG. 1A) to control the glucose profile in a db/db type II diabetes model was tested. As a control, wild type m/m mouse strain was included in the study. Mice were male, between ages 6-8 weeks, and the total group size was 8. The insulin analogs were delivered as a subcutaneous single dose. The dose volume was 5 mL/Kg ([…] per 25 g mouse). Mice were injected at the following dose levels: Degludec 1.5 IU/kg (model) and insulin analog #1 (FIG. 1A) at 0.04 mg/kg, 0.12 mg/kg, or 0.36 mg/kg. All insulin compounds (Degludec and analog #1) were diluted with 0.9% sodium chloride (vehicle, normal saline). Vehicle controls were comprised of 0.9% sodium chloride.
(§3) Blood collection for glucose plasma concentration measurements occurred at Oh (0-60 min before dosing), 0.5 h, 1 h, 2 h, 4 h, 6 h, 8 h, 10 h, 12 h, 18 h, 24 h, 30 h after the single dose. Moreover, the mouse body weight was measured daily for 3 days.

[6] = tested on: db/db mice; assay: Glucose profile after single subcutaneous dose in db/db type II diabetes mouse model; assay type: in vivo
From the text: Murine db/db murine strain is a well-accepted type II diabetes model that recapitulates most aspects of human type II diabetes. In particular, db/db mice carry mutations in the leptin receptor that lead to obesity, decreased insulin receptor sensitivity, and subsequent increased levels of blood glucose, decreased β-cell function, and elevated HBA1c levels. Like human Type II diabetes, the diabetic condition in db/db mice is progressive. Animals have near normal or slightly elevated plasma glucose (PG) and relatively normal β-cell function at 6 weeks of age. Fasting plasma glucose (FPG) levels gradually elevate over several weeks and β-cell function declines such that by about 16 weeks of age FPG is very high (>400 mg/dL) and j-cell function has entirely degenerated. The db/db mouse model may be used in an acute setting but is more typically used in a chronic setting to evaluate a test compound's cumulative action over several weeks of treatment. The variability is reasonably low such that good statistically significant effects are seen with validating compounds with group sizes of about 8 animals.
as §2, with “Mice were injected at the following dose levels: Degludec 1.5 IU/kg (model) and insulin analog #1 (FIG. 1A) at 0.04 mg/kg, 0.12 mg/kg, or 0.36 mg/kg.” left out
as §3

[7] = tested on: ICR mice; details: reference standard as labelled; cited from earlier work
[8] = tested on: ICR mice; assay: Biopotency in ICR mice against insulin reference standard, chapter <1211> of Chinese Pharmacopeia (blood glucose 40 min after injection); assay type: in vivo; details: low and high dosing solutions 0.05 and 0.1 IU/mL, blood 40 minutes after administration, FIG. 7
Method: The biopotency of the eight insulin analogs was determined by comparison with the insulin reference standard following chapter <1211> of Chinese Pharmacopeia. In particular, the insulin analogs and insulin reference standard were prepared with either diluent 1 or diluent 2. Diluent 1 comprises 0.9% sodium chloride at a pH of 2.5 (adjusted with HCl) and 0.2% phenol. Diluent 2 comprises 0.9% sodium chloride at a pH of 2.5 (adjusted with HCl). The insulin reference standard (27.2 IU/mg) and the insulin analogs (calculated as 25 IU/mg) were prepared with diluent 1. In addition, low- and high-dosing solutions (0.05 IU/mL and 0.1 IU/mL, respectively) of insulin reference standard and test analogs were prepared with diluent 2. Following chapter <1211> of Chinese Pharmacopeia, ICR mice (25-28 g, 6 animals per group) were injected with 0.2-0.3 mL of low and high dosing solution of the eight insulin analogs and insulin standard. Low and high doses of insulin standard and insulin analogs were administered to the mice following parallel design/protocol. […] The glucose concentration of each blood sample was determined by the glucose oxidase-peroxidase method (Roche blood glucose test strips). […] FIG. 6 summarizes the relative biopotency of the insulin analogs by comparing the calculated biopotency and measured biopotency.

[9] = SD rats, 175 nmol-200 nmol s.c.

T1 sequence (P08069 31-736 limits assumed): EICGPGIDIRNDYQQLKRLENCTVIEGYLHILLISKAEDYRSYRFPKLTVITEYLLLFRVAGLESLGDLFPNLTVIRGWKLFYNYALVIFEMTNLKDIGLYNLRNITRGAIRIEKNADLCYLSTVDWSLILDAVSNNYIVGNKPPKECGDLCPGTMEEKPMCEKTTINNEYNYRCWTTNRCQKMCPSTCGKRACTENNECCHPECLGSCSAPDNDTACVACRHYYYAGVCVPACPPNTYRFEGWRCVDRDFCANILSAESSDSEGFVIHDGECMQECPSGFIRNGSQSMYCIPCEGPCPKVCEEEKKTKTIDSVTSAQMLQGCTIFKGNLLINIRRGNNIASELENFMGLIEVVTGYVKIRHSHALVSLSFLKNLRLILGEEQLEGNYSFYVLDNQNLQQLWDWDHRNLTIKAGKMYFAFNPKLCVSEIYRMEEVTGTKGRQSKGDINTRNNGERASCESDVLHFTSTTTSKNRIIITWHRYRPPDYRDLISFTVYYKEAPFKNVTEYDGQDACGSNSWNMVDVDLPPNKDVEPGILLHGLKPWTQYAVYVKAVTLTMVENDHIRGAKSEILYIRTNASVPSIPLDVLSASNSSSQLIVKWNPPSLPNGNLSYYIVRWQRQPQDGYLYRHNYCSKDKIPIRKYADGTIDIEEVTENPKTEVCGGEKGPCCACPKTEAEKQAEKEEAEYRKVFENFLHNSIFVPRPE
T1 sequence (P08069 741-1367 limits assumed): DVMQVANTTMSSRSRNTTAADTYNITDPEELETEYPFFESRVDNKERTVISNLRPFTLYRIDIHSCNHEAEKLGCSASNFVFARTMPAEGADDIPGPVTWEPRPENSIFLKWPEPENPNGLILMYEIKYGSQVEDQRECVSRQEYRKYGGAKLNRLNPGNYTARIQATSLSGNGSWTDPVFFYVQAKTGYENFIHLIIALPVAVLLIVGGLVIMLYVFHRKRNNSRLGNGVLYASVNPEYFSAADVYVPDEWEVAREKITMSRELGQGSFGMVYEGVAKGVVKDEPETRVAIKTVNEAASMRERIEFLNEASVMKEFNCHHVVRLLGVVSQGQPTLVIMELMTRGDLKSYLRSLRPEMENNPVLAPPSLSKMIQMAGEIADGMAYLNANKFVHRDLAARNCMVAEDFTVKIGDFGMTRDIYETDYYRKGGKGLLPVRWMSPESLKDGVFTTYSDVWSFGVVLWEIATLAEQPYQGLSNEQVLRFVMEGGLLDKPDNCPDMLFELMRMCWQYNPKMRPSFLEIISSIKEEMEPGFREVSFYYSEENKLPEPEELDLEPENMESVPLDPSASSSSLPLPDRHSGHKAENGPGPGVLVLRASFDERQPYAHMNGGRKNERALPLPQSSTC

insulin analog 4: A-chain SEQ ID NO: 3 (A14 Gla), B-chain SEQ ID NO: 10 (B16 and B25 Pal, B28 Pip); structure FIG. 1D
rate of body weight increase compared to rats injected with Degludec [1]: lower rate of body weight increase
duration of c-peptide level compared to rats injected with Degludec [2]: maintained the level of c-peptide for a longer time
duration of decrease in glucose levels compared to rats injected with Degludec [3, 9]: longer lasting decrease in glucose levels
glucose area under the curve (AUC) values ([3]; SD rats): follow the order of their specific activities
IGF-1R activation ([4]; FIG. 19, listed as 4): none of insulin analogs 1, 2, 3, and 4 showed IGF-1R activation; also recorded: lack of IGF-1R activation

insulin analog 1: A-chain SEQ ID NO: 3 (A14 Gla), B-chain SEQ ID NO: 4 (B16 and B25 His(3-Me)); structure FIG. 1A
rate of body weight increase compared to rats injected with Degludec [1]: lower rate of body weight increase
duration of c-peptide level compared to rats injected with Degludec [2]: maintained the level of c-peptide for a longer time
effect on animal body weight [5]: no significant effect
glucose profile compared to db/db vehicle control ([6]; 0.12 mg/kg, s.c. single dose, 2, 4, 6 and 8 hr time points, FIG. 2): statistically significantly lower
response (glucose level decrease) versus dose ([6]; 0.36 mg/kg, 0.12 mg/kg and 0.04 mg/kg doses): dose proportional
glucose profile compared to db/db vehicle control ([6]; 0.36 mg/kg, entire time course starting from 2 hr time point): statistically lower
glucose profile compared to db/db vehicle control ([6]; 0.36 mg/kg, s.c. single dose, 2, 4, 6 and 8 hr time points, FIG. 2): statistically significantly lower
duration of decrease in glucose levels compared to rats injected with Degludec [3, 9]: longer lasting decrease in glucose levels
IGF-1R activation ([4]; FIG. 19, listed as 1): none of insulin analogs 1, 2, 3, and 4 showed IGF-1R activation; also recorded: lack of IGF-1R activation

insulin reference standard: insulin reference standard (27.2 IU/mg) of chapter <1211> of Chinese Pharmacopeia biopotency test
potency of insulin reference standard [7]: 27.2 IU/mg

insulin analog 2: A-chain SEQ ID NO: 3 (A14 Gla), B-chain SEQ ID NO: 6 (B16 and B25 Pal, B28 Pro); structure FIG. 1B
rate of body weight increase compared to rats injected with Degludec [1]: lower rate of body weight increase
c-peptide lowering effect among analogs tested [2]: most profound and longest-lasting c-peptide lowering effect
duration of c-peptide level compared to rats injected with Degludec [2]: maintained the level of c-peptide for a longer time
duration of decrease in glucose levels compared to rats injected with Degludec ([3]; SD rats, 175 nmol-200 nmol s.c., listed as 2): longer lasting decrease in glucose level
glucose area under the curve (AUC) values ([3]; SD rats): follow the order of their specific activities
IGF-1R activation ([4]; FIG. 19, listed as 2): none of insulin analogs 1, 2, 3, and 4 showed IGF-1R activation; also recorded: lack of IGF-1R activation
glucose lowering effect / biopotency measured in ICR mice [8]: most active

insulin analog 3: A-chain SEQ ID NO: 3 (A14 Gla), B-chain SEQ ID NO: 8 (B16 and B25 Pal, B28 Hyp); structure FIG. 1C
duration of c-peptide level compared to rats injected with Degludec [2]: maintained the level of c-peptide for a longer time
magnitude of glucose lowering effect among analogs tested [3, 9]: most profound glucose lowering effect
duration of decrease in glucose levels compared to rats injected with Degludec [3, 9]: longer lasting decrease in glucose levels
glucose area under the curve (AUC) values ([3]; SD rats): follow the order of their specific activities
IGF-1R activation ([4]; FIG. 19, listed as 3): none of insulin analogs 1, 2, 3, and 4 showed IGF-1R activation; also recorded: lack of IGF-1R activation

APi3546: A-chain SEQ ID NO: 11 (A14 Aad), B-chain SEQ ID NO: 18 (B16 His(5-I), B25 3-Pal); structure FIG. 1I
rate of body weight increase compared to rats injected with Degludec [1]: lower rate of body weight increase
duration of c-peptide level compared to rats injected with Degludec [2]: maintained the level of c-peptide for a longer time
duration of decrease in glucose levels compared to rats injected with Degludec [3, 9]: longer lasting decrease in glucose levels

Degludec [reference compound]
effect on animal body weight [5]: no significant effect

APi3545: A-chain SEQ ID NO: 11 (A14 Aad), B-chain SEQ ID NO: 16 (B16 His(5-I), B25 Ala(4-thiazoyl)); structure FIG. 1H
time undetectable c-peptide level was maintained [2]: up to 72 hours
duration of c-peptide level compared to rats injected with Degludec [2]: maintained the level of c-peptide for a longer time
duration of decrease in glucose levels compared to rats injected with Degludec [3, 9]: longer lasting decrease in glucose levels
duration of action among insulin analogs tested ([3]; structure-activity relationship (Example 5)): most long-acting insulin analog tested
glucose lowering effect / biopotency measured in ICR mice [8]: most active
